Measurements published in patent publication US20070104644A1, “Inhibitor imaging agents” (priority 2003, published 2007).

Experiments:
[1] = test system: Lewis lung carcinoma (LLC) tumour; assay: Biodistribution in LLC tumour model in vivo; design: species or system C57BL/6 mice
Protocol: 1×10^6 Lewis lung carcinoma (LLC) cells are injected subcutaneously into right inner thigh of C57BL/6 mice. Tumours were allowed to grow for 15 days prior to biodistribution being carried out.
Biodistribution studies were performed in the LLC tumour model.
Biodistribution was performed in the LLC tumour model of Example 23 with Compounds 46B and 48B.

[2] = test system: ApoE −/− mice, carotid artery; assay: Biodistribution in ApoE ligation model of atherosclerosis (ligated and sham); format: in vivo; details: ApoE Ligated
Description: ApoE −/− mice are transgenic knock-out mice, which lack the ApoE gene, and are therefore unable to regulate their plasma cholesterol levels. As a consequence ApoE mice develop atherosclerotic lesions, a process which is accelerated with feeding of high fat diet. Further acceleration of lesion development can be achieved by ligating the carotid artery, resulting in advanced lesion formation within 4 weeks of surgery and high fat diet feeding.
Two controls have been used for these experiments: (1) ApoE sham animals in which the mice undergo the same surgical intervention but the sture is only passed beneath the carotid and then removed and, (2) C57BL/6 ligtaed animals which undergo the same surgical ligation and high fat feeding as the ApoE ligated mice. Literature reports have stated that these animals do have some level of tissue remodelling, but with lower active MMP levels [Ivan et al, Circulation, 105, 2686-2691 (2002)].

Row | % ID Urinary (urinary excretion), mean ([1]; 5 min post injection) [% ID] | % ID/g Tumour, mean ([1]; 5 min post injection) [% ID/g] | Tumour/Blood, mean ([1]; 5 min post injection) | Tumour/Heart, mean ([1]; 5 min post injection) | Tumour/Lung, mean ([1]; 5 min post injection) | Tumour/Muscle, mean ([1]; 5 min post injection) | % ID Urinary (urinary excretion), mean ([1]; 30 min post injection) [% ID] | % ID/g Tumour, mean ([1]; 30 min post injection) [% ID/g] | Tumour/Blood, mean ([1]; 30 min post injection) | Tumour/Heart, mean ([1]; 30 min post injection) | Tumour/Lung, mean ([1]; 30 min post injection) | Tumour/Muscle, mean ([1]; 30 min post injection) | % ID Urinary (urinary excretion), mean ([1]; 60 min post injection) [% ID] | % ID/g Tumour, mean ([1]; 60 min post injection) [% ID/g] | Tumour/Blood, mean ([1]; 60 min post injection) | Tumour/Heart, mean ([1]; 60 min post injection) | Tumour/Lung, mean ([1]; 60 min post injection) | Tumour/Muscle, mean ([1]; 60 min post injection) | % ID Urinary (urinary excretion), mean ([1]; 120 min post injection) [% ID] | % ID/g Tumour, mean ([1]; 120 min post injection) [% ID/g] | Compound | further results
1 | 6.37 | 2.08 | 0.13 | 0.29 | 0.33 | 1.22 | 40.17 | 2.14 | 0.30 | 0.90 | 0.73 | 2.19 | 68.53 | 1.06 | 0.45 | 1.25 | 0.83 | 2.27 | 78.75 | 0.42 | NC(=O)[C@H](Cc1ccc(O)c([123I])c1)NC(=O)COCC(=O)NCCOCCOCCOCCNC(=O)[C@H](CCC(=O)O)NC(=O)[C@H](CCC(=O)O)NC(=O)[C@H](CCC(=O)O)NC(=O)[C@H](CCC(=O)O)NC(=O)[C@H](CCC(=O)O)NC(=O)CCN(C1(C(=O)NO)CCCC1)S(=O)(=O)c1ccc(Oc2ccc(F)cc2)cc1 [Compound 38A] | Tumour/Blood, mean ([1]; 120 min post injection): 0.52; Tumour/Heart, mean ([1]; 120 min post injection): 1.14; Tumour/Lung, mean ([1]; 120 min post injection): 0.64; Tumour/Muscle, mean ([1]; 120 min post injection): 1.82
2 | 5.62 | 1.64 | 0.13 | 0.30 | 0.28 | 0.92 | 26.73 | 2.20 | 0.33 | 0.83 | 0.65 | 1.72 | 39.99 | 1.97 | 0.40 | 1.14 | 0.66 | 2.30 | 52.08 | 1.60 | NC(=O)[C@H](Cc1ccc(O)c([123I])c1)NC(=O)[C@H](CCC(=O)O)NC(=O)[C@H](CCC(=O)O)NC(=O)[C@H](CCC(=O)O)NC(=O)[C@H](CCC(=O)O)NC(=O)[C@H](CCC(=O)O)NC(=O)CCN(C1(C(=O)NO)CCCC1)S(=O)(=O)c1ccc(Oc2ccc(F)cc2)cc1 [Compound 21A] | Tumour/Blood, mean ([1]; 120 min post injection): 0.37; Tumour/Heart, mean ([1]; 120 min post injection): 0.91; Tumour/Lung, mean ([1]; 120 min post injection): 0.61; Tumour/Muscle, mean ([1]; 120 min post injection): 2.44
3 | 6.89 | 2.26 | 0.26 | 0.47 | 0.26 | 1.46 | 16.98 | 2.67 | 0.54 | 1.24 | 0.57 | 3.22 | 31.69 | 2.35 | 0.66 | 1.49 | 0.74 | 3.52 | 48.07 | 1.29 | NCCCC[C@H](NC(=O)CCN(C1(C(=O)NO)CCCC1)S(=O)(=O)c1ccc(Oc2ccc(F)cc2)cc1)C(=O)N[C@@H](CCCCN)C(=O)N[C@@H](CCCCN)C(=O)N[C@@H](CCCCN)C(=O)N[C@@H](CCCCN)C(=O)NCCOCCOCCOCCNC(=O)COCC(=O)N[C@@H](Cc1ccc(O)c([123I])c1)C(N)=O [Compound 42A] | Tumour/Blood, mean ([1]; 120 min post injection): 0.56; Tumour/Heart, mean ([1]; 120 min post injection): 1.49; Tumour/Lung, mean ([1]; 120 min post injection): 0.60; Tumour/Muscle, mean ([1]; 120 min post injection): 2.51

Further lines, the compound ahead of its results:

Row | Compound | % ID Urinary (urinary excretion), mean ([1]; 5 min post injection) [% ID] | % ID/g Tumour, mean ([1]; 5 min post injection) [% ID/g] | Tumour/Blood, mean ([1]; 5 min post injection) | Tumour/Heart, mean ([1]; 5 min post injection) | Tumour/Lung, mean ([1]; 5 min post injection) | Tumour/Muscle, mean ([1]; 5 min post injection) | % ID Urinary (urinary excretion), mean ([1]; 30 min post injection) [% ID] | % ID/g Tumour, mean ([1]; 30 min post injection) [% ID/g] | Tumour/Blood, mean ([1]; 30 min post injection) | Tumour/Heart, mean ([1]; 30 min post injection) | Tumour/Lung, mean ([1]; 30 min post injection) | Tumour/Muscle, mean ([1]; 30 min post injection) | % ID Urinary (urinary excretion), mean ([1]; 60 min post injection) [% ID] | % ID/g Tumour, mean ([1]; 60 min post injection) [% ID/g] | Tumour/Blood, mean ([1]; 60 min post injection) | Tumour/Heart, mean ([1]; 60 min post injection) | Tumour/Lung, mean ([1]; 60 min post injection) | Tumour/Muscle, mean ([1]; 60 min post injection) | % ID Urinary (urinary excretion), mean ([1]; 120 min post injection) [% ID] | % ID/g Tumour, mean ([1]; 120 min post injection) [% ID/g] | further results
4 | NC(=O)[C@H](CCCCNC(=O)CON=Cc1ccc([18F])cc1)NC(=O)CCN(C1(C(=O)NO)CCCC1)S(=O)(=O)c1ccc(Oc2ccc(F)cc2)cc1 [Compound 46B] | 6.60 | 0.42 | 0.18 | 0.37 | 0.21 | 1.16 | 12.00 | 0.53 | 0.47 | 1.15 | 0.55 | 2.06 | 15.02 | 0.32 | 0.73 | 1.54 | 0.60 | 2.02 | 19.68 | 0.31 | Tumour/Blood, mean ([1]; 120 min post injection): 0.73; Tumour/Heart, mean ([1]; 120 min post injection): 1.33; Tumour/Lung, mean ([1]; 120 min post injection): 0.80; Tumour/Muscle, mean ([1]; 120 min post injection): 1.81; % ID/G Carotid, mean ([2]; 5 min post injection): 0.88 % ID/G; Carotid/Blood, mean ([2]; 5 min post injection): 0.42; Carotid/Heart, mean ([2]; 5 min post injection): 0.49; Carotid/Lung, mean ([2]; 5 min post injection): 0.35; % ID/G Carotid, mean ([2]; 60 min post injection): 0.44 % ID/G; Carotid/Blood, mean ([2]; 60 min post injection): 0.61; Carotid/Heart, mean ([2]; 60 min post injection): 1.11; Carotid/Lung, mean ([2]; 60 min post injection): 0.53
5 | NC(=O)[C@H](Cc1ccc(O)c([123I])c1)NC(=O)CCOCCOCCOCCOCCOCCOCCOCCOCCOCCOCCOCCNC(=O)CCN(C1(C(=O)NO)CCCC1)S(=O)(=O)c1ccc(Oc2ccc(F)cc2)cc1 [Compound 44A] | 3.94 | 1.14 | 0.41 | 0.86 | 0.49 | 1.91 | 5.85 | 0.5 | 0.38 | 0.870 | 0.54 | 1.57 | 6.36 | 0.66 | 0.42 | 0.940 | 0.69 | 2.3 | 9.42 | 0.53 | Tumour/Blood, mean ([1]; 120 min post injection): 0.43; Tumour/Heart, mean ([1]; 120 min post injection): 1.060; Tumour/Lung, mean ([1]; 120 min post injection): 0.72; Tumour/Muscle, mean ([1]; 120 min post injection): 2.8
6 | NC(=O)[C@H](Cc1ccc(O)c([123I])c1)NC(=O)COCC(=O)NCCOCCOCCOCCNC(=O)CCN(C1(C(=O)NO)CCCC1)S(=O)(=O)c1ccc(Oc2ccc(F)cc2)cc1 [Compound 20A] | – | – | – | – | – | – | – | – | – | – | – | – | – | – | – | – | – | – | – | – | Decrease in HBS (hepatobiliary) excretion compared to Compound 24A [1]: 10%; Increase in urinary excretion compared to Compound 24A [1]: 10%; Tumour retention compared to Compound 24A [1]: slightly increased; Uptake into the tumour compared to Compound 24A [1]: slightly lower
